Measurements taken from PubChem BioAssay (NCI).
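1) Cells in 96-well plates. 2) Compound, 48 h, 5 concentrations. 3) Linear interpolation between surrounding doses. 4) Unreached endpoint = highest concentration. TGI: concentration producing complete growth inhibition.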

How the values were obtained:
Assay in all cases: DTP human tumour cell line panel, 48 h
[1] = test system: A498 renal
[2] = test system: A549 NSCLC
[3] = test system: EKVX NSCLC
[4] = test system: HCC-2998 colon
[5] = test system: K-562 leukemia
[6] = test system: M14 melanoma
[7] = test system: MALME-3M melanoma
[8] = test system: NCI-H460 lung
[9] = test system: NCI-H522 lung
[10] = test system: OVCAR-8 ovarian
[11] = test system: RXF 393 renal
[12] = test system: SK-MEL-2 melanoma
[13] = test system: SNB-19 CNS
[14] = test system: SW-620 colon
[15] = test system: TK-10 renal
[16] = test system: UACC-62 melanoma

Structure (SMILES) | TGI [1] | TGI [2] | TGI [3] | TGI [4] | TGI [5] | TGI [6] | TGI [7] | TGI [8] | TGI [9] | TGI [10] | TGI [11] | TGI [12] | TGI [13] | TGI [14] | TGI [15] | TGI [16]
CCCc1c(C(=O)OCC)[nH]c(-c2ccc(-c3[nH]c(C(=O)OCC)c(CCC)c3C(=O)OCC)o2)c1C(=O)OCC | > 100 µM | > 100 µM | > 100 µM | > 100 µM | > 100 µM | > 100 µM | > 100 µM | > 100 µM | > 100 µM | > 100 µM | > 100 µM | > 100 µM | > 100 µM | > 100 µM | > 100 µM | > 100 µM
COc1cc([C@@H]2c3cc4c(cc3[C@@H](NCc3ccccc3)C3COC(=O)[C@@H]32)OCO4)cc(OC)c1O (some centres not stated) | 19.4 µM | 15.4 µM | 38.1 µM | 33 µM | > 79.1 µM | 36.6 µM | 32.7 µM | 15.8 µM |  | 51.7 µM | 72.2 µM | 52.2 µM | 42 µM | 57.5 µM | > 61.7 µM | 22.1 µM
CC(=O)OCC1OC(n2c(=O)n(-c3ccccc3)c(=O)c3cc(Br)cc(Br)c32)C(OC(C)=O)C(OC(C)=O)C1OC(C)=O (configuration not stated) | > 100 µM | > 100 µM | > 100 µM | > 100 µM | > 100 µM | > 100 µM | > 100 µM | > 100 µM | > 100 µM | > 100 µM | > 100 µM | > 100 µM | > 100 µM | > 100 µM | > 100 µM | > 100 µM
O=C(/C=C\c1ccccc1)Oc1ccc(/C=C2\CCCCC2=O)cc1 | > 100 µM | > 100 µM | > 100 µM | > 100 µM |  | > 100 µM | > 100 µM | > 100 µM | > 100 µM | > 100 µM |  | > 100 µM | > 100 µM | > 100 µM | 43.2 µM | 0.136 µM
CCOC(=O)C(=Cc1cc(OC)ccc1OC)C(=O)OCC | 28.5 µM | 26.9 µM | 31.3 µM | 34.8 µM | 27.4 µM | 24.2 µM | 25.5 µM | > 100 µM | 14.4 µM | 20.9 µM | 6.2 µM | 18.1 µM | 25 µM | 14 µM |  | 6.13 µM
CCOC(=O)[C@H]1Nc2ccc(Cl)cc2[C@H]2OCC[C@@H]12 | > 100 µM | > 100 µM | > 100 µM | > 100 µM | > 100 µM | > 100 µM | > 100 µM | > 100 µM | > 100 µM | > 100 µM | > 100 µM | > 100 µM | > 100 µM | > 100 µM | > 100 µM | > 100 µM
